Experimental data: US20050085557A1, “Therapeutic procedures” (priority 2003, published 2005)

How the values were obtained:
[1] = test system: J774.1 macrophages; assay: Lipid-loading assay (foam cell formation); format: cell-based, murine; conditions: LDL 100 μg/mL with compound (20 μM), 72 h, unactivated J774.1 macrophages
Method: Macrophages were first grown for 24 h in RPMI-1640 containing 10% fetal bovine serum and then incubated for 72 h in the same media containing LDL (100 μg/mL). Cells were fixed with 4% formaldehyde and stained with hematoxylin and oil red O such that lipid granules stained a darker red color. Magnification×100.
J774.1 macrophages were grown for 24 h in RPMI-1640 containing 10% fetal bovine serum. […] Cells were fixed with 4% formaldehyde and stained with hematoxylin and oil red O such that lipid granules stained a darker red color. Magnification×100.
Lipid-loading assay (foam cellformation). J774.1 macrophages were incubated in ATCC-recommended media containing 10% fetal bovine serum under a controlled atmosphere of 5 or 7% CO2 at 37° C., in 8-well chamber slides. […] At termination, cells were washed twice with PBS (pH 7.4). The cells were then fixed with 6% (v/v) paraformaldehyde in PBS for 30 minutes, rinsed with propylene glycol for 2 minutes and lipids were stained with 5 mg/ml Oil Red O for 8 minutes. The cells were counterstained with Harris' hematoxylin for 45 seconds, and background staining was removed with […] followed by washing once in PBS and once in tap water. […] The number of lipid-laden cells was scored out of a total of at least 100 cells counted in a single field in each slide, and expressed as a percentage of total cells. […]

[2] = target: T1, LDL / apoB-100 (Homo sapiens, UniProt P04114); assay: Circular dichroism of LDL secondary structure; format: biochemical; conditions: LDL 100 μg/ml, compound 10 μM, PBS pH 7.4, 37° C., 48 h; for random coil of LDL after incubation (circular dichroism): normal LDL 27±2%; for a helical structure of LDL after incubation (circular dichroism): normal LDL ~40±2%
T1 construct: Circular dichroism (CD) spectra of LDL (100 μg/ml)
T1 sequence (P04114 28-4563, species assumed): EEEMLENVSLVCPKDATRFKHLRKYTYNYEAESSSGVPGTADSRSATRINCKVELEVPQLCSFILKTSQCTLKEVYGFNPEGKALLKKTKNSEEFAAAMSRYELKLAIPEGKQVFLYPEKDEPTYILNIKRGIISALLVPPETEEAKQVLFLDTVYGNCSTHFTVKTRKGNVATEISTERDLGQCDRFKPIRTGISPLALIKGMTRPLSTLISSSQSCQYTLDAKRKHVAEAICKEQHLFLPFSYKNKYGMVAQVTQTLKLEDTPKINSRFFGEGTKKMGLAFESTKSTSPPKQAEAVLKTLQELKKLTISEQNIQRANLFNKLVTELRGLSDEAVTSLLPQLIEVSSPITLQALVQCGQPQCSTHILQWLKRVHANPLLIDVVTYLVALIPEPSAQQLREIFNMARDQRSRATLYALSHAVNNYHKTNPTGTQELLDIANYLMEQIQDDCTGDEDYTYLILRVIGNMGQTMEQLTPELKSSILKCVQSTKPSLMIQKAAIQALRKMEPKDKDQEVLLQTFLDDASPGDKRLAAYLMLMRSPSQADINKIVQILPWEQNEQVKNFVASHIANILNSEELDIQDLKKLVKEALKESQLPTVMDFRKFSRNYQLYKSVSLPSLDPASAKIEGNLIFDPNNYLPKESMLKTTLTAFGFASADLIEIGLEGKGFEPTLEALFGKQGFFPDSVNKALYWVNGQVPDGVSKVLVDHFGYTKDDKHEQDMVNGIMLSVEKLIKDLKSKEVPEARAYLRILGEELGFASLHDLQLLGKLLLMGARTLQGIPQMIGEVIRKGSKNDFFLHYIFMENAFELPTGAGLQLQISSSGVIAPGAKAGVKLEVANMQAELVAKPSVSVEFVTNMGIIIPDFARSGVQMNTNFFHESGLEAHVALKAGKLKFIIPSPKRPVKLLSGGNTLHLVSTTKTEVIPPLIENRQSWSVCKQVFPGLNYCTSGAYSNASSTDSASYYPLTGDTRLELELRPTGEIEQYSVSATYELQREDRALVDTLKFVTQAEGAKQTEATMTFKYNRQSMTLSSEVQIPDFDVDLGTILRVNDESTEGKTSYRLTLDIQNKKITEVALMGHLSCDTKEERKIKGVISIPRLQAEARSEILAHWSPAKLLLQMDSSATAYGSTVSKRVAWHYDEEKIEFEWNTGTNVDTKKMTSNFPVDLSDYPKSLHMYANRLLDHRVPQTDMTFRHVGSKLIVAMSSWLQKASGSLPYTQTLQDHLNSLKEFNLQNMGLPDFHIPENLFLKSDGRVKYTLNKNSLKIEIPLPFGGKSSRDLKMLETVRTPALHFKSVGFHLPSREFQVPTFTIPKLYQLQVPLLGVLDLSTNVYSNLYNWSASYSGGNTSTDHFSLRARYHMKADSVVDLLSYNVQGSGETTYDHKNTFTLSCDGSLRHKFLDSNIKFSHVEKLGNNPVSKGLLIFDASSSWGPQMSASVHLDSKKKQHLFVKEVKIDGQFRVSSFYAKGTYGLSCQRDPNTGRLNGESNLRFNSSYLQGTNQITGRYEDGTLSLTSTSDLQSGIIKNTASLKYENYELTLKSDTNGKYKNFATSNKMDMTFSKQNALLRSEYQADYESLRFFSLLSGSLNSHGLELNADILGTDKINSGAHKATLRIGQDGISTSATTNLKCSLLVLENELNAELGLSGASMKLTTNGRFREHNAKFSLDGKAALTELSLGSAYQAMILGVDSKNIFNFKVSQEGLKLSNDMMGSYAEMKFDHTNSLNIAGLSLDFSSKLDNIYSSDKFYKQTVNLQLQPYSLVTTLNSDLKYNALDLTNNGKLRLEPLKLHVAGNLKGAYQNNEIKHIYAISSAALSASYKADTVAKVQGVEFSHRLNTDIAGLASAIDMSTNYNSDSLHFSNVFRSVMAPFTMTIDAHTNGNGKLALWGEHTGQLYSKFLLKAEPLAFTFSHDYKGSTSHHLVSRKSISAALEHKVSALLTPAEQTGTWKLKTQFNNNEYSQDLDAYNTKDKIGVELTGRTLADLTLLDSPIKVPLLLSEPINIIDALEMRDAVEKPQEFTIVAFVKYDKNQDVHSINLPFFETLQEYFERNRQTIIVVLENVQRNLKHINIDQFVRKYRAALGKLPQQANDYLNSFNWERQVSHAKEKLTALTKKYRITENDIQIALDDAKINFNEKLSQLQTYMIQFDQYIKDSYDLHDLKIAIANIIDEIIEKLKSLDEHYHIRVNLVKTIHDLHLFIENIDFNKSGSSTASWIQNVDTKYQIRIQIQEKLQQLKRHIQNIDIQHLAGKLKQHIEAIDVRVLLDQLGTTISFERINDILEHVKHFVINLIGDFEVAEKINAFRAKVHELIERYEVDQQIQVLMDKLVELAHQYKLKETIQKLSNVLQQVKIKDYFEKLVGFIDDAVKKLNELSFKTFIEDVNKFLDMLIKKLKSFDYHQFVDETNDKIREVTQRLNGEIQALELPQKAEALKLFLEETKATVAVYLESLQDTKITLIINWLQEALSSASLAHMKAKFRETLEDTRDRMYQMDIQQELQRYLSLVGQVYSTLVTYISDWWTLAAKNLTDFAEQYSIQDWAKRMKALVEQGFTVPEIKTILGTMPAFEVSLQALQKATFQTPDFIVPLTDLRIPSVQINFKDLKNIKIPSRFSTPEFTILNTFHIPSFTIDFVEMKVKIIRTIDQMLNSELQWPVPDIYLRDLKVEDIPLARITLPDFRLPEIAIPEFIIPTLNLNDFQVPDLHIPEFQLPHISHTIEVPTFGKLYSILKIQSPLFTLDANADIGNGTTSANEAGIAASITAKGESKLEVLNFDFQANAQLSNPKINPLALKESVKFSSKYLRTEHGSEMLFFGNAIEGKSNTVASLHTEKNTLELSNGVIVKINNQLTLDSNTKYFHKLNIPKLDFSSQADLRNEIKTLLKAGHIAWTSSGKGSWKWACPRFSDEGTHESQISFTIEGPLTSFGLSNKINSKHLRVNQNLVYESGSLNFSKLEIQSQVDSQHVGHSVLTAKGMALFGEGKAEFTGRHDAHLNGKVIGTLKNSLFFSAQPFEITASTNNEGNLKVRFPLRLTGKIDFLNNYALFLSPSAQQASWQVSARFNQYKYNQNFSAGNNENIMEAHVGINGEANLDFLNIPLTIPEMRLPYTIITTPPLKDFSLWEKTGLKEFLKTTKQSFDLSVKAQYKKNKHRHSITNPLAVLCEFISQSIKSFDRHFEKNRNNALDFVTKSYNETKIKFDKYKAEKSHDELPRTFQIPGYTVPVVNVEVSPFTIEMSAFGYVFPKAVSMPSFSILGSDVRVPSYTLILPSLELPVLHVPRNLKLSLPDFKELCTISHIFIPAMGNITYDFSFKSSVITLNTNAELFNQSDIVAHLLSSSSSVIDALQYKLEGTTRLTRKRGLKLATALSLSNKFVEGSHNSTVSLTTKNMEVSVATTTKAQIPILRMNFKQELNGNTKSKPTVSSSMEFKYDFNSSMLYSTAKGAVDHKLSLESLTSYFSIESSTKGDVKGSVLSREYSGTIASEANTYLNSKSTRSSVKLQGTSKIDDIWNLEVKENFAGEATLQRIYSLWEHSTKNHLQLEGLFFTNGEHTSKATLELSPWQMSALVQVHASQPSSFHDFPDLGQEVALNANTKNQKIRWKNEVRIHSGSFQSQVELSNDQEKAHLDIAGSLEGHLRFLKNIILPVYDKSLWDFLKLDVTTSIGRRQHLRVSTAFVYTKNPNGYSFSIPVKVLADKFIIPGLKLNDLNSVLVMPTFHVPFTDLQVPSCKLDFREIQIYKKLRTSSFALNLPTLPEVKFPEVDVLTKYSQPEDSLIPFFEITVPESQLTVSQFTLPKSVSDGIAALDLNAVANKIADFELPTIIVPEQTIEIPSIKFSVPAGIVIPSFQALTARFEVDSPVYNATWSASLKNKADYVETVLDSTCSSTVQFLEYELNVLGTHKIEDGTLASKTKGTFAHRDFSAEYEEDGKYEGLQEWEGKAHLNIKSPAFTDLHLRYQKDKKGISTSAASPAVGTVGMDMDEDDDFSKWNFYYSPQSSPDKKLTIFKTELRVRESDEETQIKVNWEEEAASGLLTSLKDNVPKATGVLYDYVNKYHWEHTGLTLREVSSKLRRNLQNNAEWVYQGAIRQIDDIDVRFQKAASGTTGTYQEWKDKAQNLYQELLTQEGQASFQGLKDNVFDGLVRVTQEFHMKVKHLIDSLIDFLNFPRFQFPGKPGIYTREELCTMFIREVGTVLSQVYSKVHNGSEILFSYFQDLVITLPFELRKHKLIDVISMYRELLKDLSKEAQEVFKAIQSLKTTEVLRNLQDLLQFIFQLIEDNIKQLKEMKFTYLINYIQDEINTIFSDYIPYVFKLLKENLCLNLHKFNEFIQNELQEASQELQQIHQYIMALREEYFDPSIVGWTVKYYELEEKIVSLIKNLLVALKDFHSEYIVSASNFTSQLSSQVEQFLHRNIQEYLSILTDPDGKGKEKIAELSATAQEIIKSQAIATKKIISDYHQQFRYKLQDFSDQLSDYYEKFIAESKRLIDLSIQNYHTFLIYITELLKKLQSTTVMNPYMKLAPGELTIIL
Method: Circular dichroism. […] Spectra were recorded in the peptidic range (200-260 nm). To increase the signal-to-noise ratio, multiple spectra (three) were averaged for each measurement.

[3] = Aldolization of ketoaldehyde 4a with amino acids (1H NMR); format: physicochemical; conditions: DMSO-d6 (800 μl) and D2O (80 μl) without amino acid
Method: Aldolization of ketoaldehyde 4a with amino acids. […] To this solution was added 1 equivalent of either: a) L-proline, […] b) glycine, c) L-lysine hydrochloride or d) L-lysine ethyl ester dihydrochloride. At time points the samples were analyzed by ^1H NMR.

[4] = Aldolization of secoketoaldehyde 4a with atherosclerotic artery and blood fractions (1H NMR); format: in vitro ADME, human; conditions: lyophilized PBS
Method: Aldolization of secoketoaldehyde 4a with atherosclerotic artery and blood fractions. […] To this solution was added either a) atherosclerotic artery (2.1 mg) that had been homogenized in PBS (1 ml) in a tissue homogenizer and then lyophilized to dryness, b) lyophilized human blood (1 ml), c) lyophilized human plasma (1 ml) or d) PBS lyophilized (1 ml). At time points samples were removed and analyzed by ^1H NMR vide supra.

[5] = test system: human B-lymphocyte (WI-L2) cell line; assay: Cytotoxicity assay (LDH release), WI-L2; format: cell-based; conditions: FIG. 6A; in this concentration range (0-100 μM)
Method: Cytotoxicity assays. WI-L2 human B-lymphocyte line, HAAE-1 human abdominal aortic endothelial line, MH-S murine alveolar macrophage line, and J774A.1 murine tissue macrophage line were obtained from the ATCC. Human aortic endothelial cells (HAEC) and human vascular smooth muscle cells (VSMS) were obtained from Cambrex Bio Science. Jurkat E6-IT-lymphocytes were kindly provided by Dr. J. Kaye (The Scripps Research Institute). Cells were cultured in ATCC-recommended media with 10% fetal calf serum. Cells were incubated in a controlled atmosphere at 37° C., with 5 or 7% CO2. For lactate dehydrogenase (LDH) release assays, adherent cells were harvested either by addition of 0.05% trypsin/EDTA or by scraping. The cells obtained were seeded onto 96-well microtiter plates (25,000 cells/well) and allowed to recover for 24-48 h. […] Cytotoxicity was then determined by measuring lactate dehydrogenase (LDH) release from cells in culture. […] 100% Cytotoxicity was defined as the maximum amount of LDH released by dead cells as shown by trypan blue exclusion, or the highest amount of LDH detected upon lysis of cells by 0.9% Triton X-100. The IC50 values were determined by comparison of the raw duplicate data for concentration versus cytotoxicity (%) to non-linear regression analysis (Hill plot) using Graphpad v3.0 software for Macintosh. […]

[6] = test system: T-lymphocyte cell line (Jurkat E6.1); assay: Cytotoxicity assay (LDH release), Jurkat E6.1; format: cell-based; conditions: FIG. 6B; in this concentration range (0-100 μM)
Method: Cytotoxicity assays. WI-L2 human B-lymphocyte line, HAAE-1 human abdominal aortic endothelial line, MH-S murine alveolar macrophage line, and J774A.1 murine tissue macrophage line were obtained from the ATCC. Human aortic endothelial cells (HAEC) and human vascular smooth muscle cells (VSMS) were obtained from Cambrex Bio Science. […] Cells were cultured in ATCC-recommended media with 10% fetal calf serum. Cells were incubated in a controlled atmosphere at 37° C., with 5 or 7% CO2. For lactate dehydrogenase (LDH) release assays, adherent cells were harvested either by addition of 0.05% trypsin/EDTA or by scraping. The cells obtained were seeded onto 96-well microtiter plates (25,000 cells/well) and allowed to recover for 24-48 h. Cells were washed gently and media replaced with fresh media containing 5% fetal calf serum. […] Cytotoxicity was then determined by measuring lactate dehydrogenase (LDH) release from cells in culture. […] 100% Cytotoxicity was defined as the maximum amount of LDH released by dead cells as shown by trypan blue exclusion, or the highest amount of LDH detected upon lysis of cells by 0.9% Triton X-100. The IC50 values were determined by comparison of the raw duplicate data for concentration versus cytotoxicity (%) to non-linear regression analysis (Hill plot) using Graphpad v3.0 software for Macintosh. […]

| Structure (SMILES) | lipid-loading of macrophages / foam cell formation [1] | random coil of LDL after incubation (circular dichroism) [2] | a helical structure of LDL after incubation (circular dichroism) [2] | aldolization of 4a (background) [3] | aldolization of 4a (background) [4] | cytotoxicity against B-cell (WI-L2) cell line [5] | cytotoxicity against T-cell (Jurkat) cell line [6] |
| --- | --- | --- | --- | --- | --- | --- | --- |
| CC(C)CCC[C@@H](C)[C@H]1CCC2C(CC=O)C([C@@]3(C)CC[C@H](O)CC3=O)CC[C@@]21C (stereo partly drawn) [4a, 3β-Hydroxy-5-oxo-5,6-secocholestan-6-al] | foam cells began to appear | ~39±2% | ~23±5% | no aldolization | no aldolization |  |  |
| CC(C)CCC[C@@H](C)[C@H]1CCC2C3C(CC[C@@]21C)[C@@]1(C)CC[C@H](O)C[C@@]1(O)[C@@H]3C=O (stereo partly drawn) [5a, 3β-Hydroxy-5β-hydroxy-B-norcholestane-6β-carboxaldehyde] | foam cells began to appear | 32±+4% | ~20±2% |  |  |  |  |
| CC(C)CCC[C@@H](C)[C@H]1CC[C@H]2[C@@H]3CC=C4C[C@@H](O)CC[C@]4(C)[C@H]3CC[C@]12C [compound 3, cholesterol] |  |  |  |  |  | No cytotoxicity | No cytotoxicity |
